Here are results for 9 compounds from US11608328B2, “Chemical probes to identify anti-mycobacterial MmpL3 inhibitors” (Creighton University, priority 2019, dated 2023).

One test concerns Mtb. The test can be described thus: MIC values against Mtb used for the PMF assays. Type of test: cell-based, Mycobacterium tuberculosis. Conditions: read-out: MIC values.
Test [1] deals with MsmgΔmmpL3 expressing mmpL3tb S591W. Type of test: cell-based, Mycobacterium smegmatis.
The test system of test [2] is MsmgΔmmpL3 expressing mmpL3tb G253W. Type of test: cell-based, Mycobacterium smegmatis.
Test [3] relates to MsmgΔmmpL3 expressing mmpL3tb F644Y. Type of test: cell-based, Mycobacterium smegmatis.
The test system of test [4] is MsmgΔmmpL3 expressing mmpL3tb LI89A. In words: microbe, parasite or virus in culture. It is filed as cell-based. The note with it: Table 2, mutant LI89A.
The test system of test [5] is MsmgΔmmpL3 expressing mmpL3tb V684G. Type of test: cell-based, Mycobacterium smegmatis.
For test [6], the system named is MsmgΔmmpL3 expressing mmpL3tb L189R. Type of test: cell-based, Mycobacterium smegmatis.
Test [7] has as its system MsmgΔmmpL3 expressing mmpL3tb G253E. Type of test: cell-based, Mycobacterium smegmatis.
Test [8] deals with MsmgΔmmpL3 expressing mmpL3tb F644C/I/L. Type of test: cell-based, Mycobacterium smegmatis.
The subject of test [9] is MsmgΔmmpL3 expressing wild-type mmpL3tb. In words: microbe, parasite or virus in culture. It is filed as cell-based.
The subject of test [10] is MsmgΔmmpL3 expressing mmpL3tb G253R. It is filed as cell-based, Mycobacterium smegmatis.
Test [11] deals with MsmgΔmmpL3 expressing mmpL3tb V684W. Type of test: cell-based, Mycobacterium smegmatis.
Test [12] has as its system MsmgΔmmpL3 expressing mmpL3tb V684A. Type of test: cell-based, Mycobacterium smegmatis.
The test system of test [13] is MsmgΔmmpL3 expressing mmpL3tb V684I. Type of test: cell-based, Mycobacterium smegmatis.
The subject of test [14] is MsmgΔmmpL3 expressing mmpL3tb S591I. It is filed as cell-based, Mycobacterium smegmatis.
The subject of test [15] is MsmgΔmmpL3 expressing mmpL3tb S591G. It is filed as cell-based, Mycobacterium smegmatis.
Test [16] has as its system MsmgΔmmpL3 expressing mmpL3tb S309C. Type of test: cell-based, Mycobacterium smegmatis.
Another test addresses MmpL3tb (MmpL3^WT) (Mycobacterium tuberculosis, UniProt P9WJV5). It is filed as binding. The note with it: 50, 100 and 200 μM.
Test [17] deals with MsmgΔmmpL3 expressing mmpL3tb F644C. Type of test: cell-based, Mycobacterium smegmatis.
Test [18] relates to MsmgΔmmpL3 expressing mmpL3tb S288T. Type of test: cell-based, Mycobacterium smegmatis.
The test system of test [19] is MsmgΔmmpL3 expressing mmpL3tb Q372R. Type of test: cell-based, Mycobacterium smegmatis.
Test [20] relates to MsmgΔmmpL3 expressing mmpL3tb L567P. Type of test: cell-based, Mycobacterium smegmatis.
Test [21] has as its system MsmgΔmmpL3 expressing mmpL3tb T311I. Type of test: cell-based, Mycobacterium smegmatis.
Test [22] relates to Mtb H37Rv mc^26206 inverted membrane vesicles (IMVs). The test can be described thus: Succinate-driven proton translocation assay (ACMA) in inverted membrane vesicles. Type of test: biochemical, Mycobacterium tuberculosis. The note with it: one and four times MIC against Mtb. The procedure: (§1) FIG. 19A: The reactions were initiated by adding 5 mM succinate. Upon stabilization of the signal, control compounds (INH, RIF, nigericin), the MmpL3 inhibitors or diluent (water, used for INH, or 0.2% DMSO, used for all other compounds) were added and proton translocation monitored fluorimetrically. MmpL3 inhibitors and controls were used at one and four times their MIC concentrations against Mtb. Shown are the averages and standard deviations (error bars) of triplicate measurements.
(§2) Succinate-driven proton translocation assays with the fluorescent substrate ACMA were conducted as previously described (see e.g., Li et al. J. Med. Chem. 2014, 57: 3126-3139) to determine the effect of MmpL3 inhibitors on the electrochemical proton gradient of Mtb H37Rv mc^26206 and E. coli BL21(DE3) IMVs. IMVs (0.18 mg/mL membrane proteins) were pre-incubated at 37° C. in 10 mM HEPES-KOH pH 7.5, 100 mM KCl, 5 mM MgCl2 containing 2 μM ACMA and the baseline monitored for 10 min with a fluorescence spectrophotometer (Victor X5, PerkinElmer). The reaction was then initiated by adding 5 mM succinate. Upon stabilization of the signal, control compounds (INH, RIF, nigericin), MmpL3 inhibitors, or diluent (0.2% DMSO or water) were added and proton translocation monitored fluorimetrically. The excitation and emission wavelengths were 410 nm and 480 nm, respectively.

Another test relates to E. coli BL21(DE3) IMVs. The test is described as above. Type of test: biochemical. The note with it: 2 μg/mL. The procedure:
as §1, §2

Another test deals with purified MmpL3tb protein (Mycobacterium tuberculosis, UniProt P9WJV5). In words: Surface Plasmon Resonance binding to immobilized MmpL3tb.
Chain of purified MmpL3tb protein (P9WJV5 whole entry): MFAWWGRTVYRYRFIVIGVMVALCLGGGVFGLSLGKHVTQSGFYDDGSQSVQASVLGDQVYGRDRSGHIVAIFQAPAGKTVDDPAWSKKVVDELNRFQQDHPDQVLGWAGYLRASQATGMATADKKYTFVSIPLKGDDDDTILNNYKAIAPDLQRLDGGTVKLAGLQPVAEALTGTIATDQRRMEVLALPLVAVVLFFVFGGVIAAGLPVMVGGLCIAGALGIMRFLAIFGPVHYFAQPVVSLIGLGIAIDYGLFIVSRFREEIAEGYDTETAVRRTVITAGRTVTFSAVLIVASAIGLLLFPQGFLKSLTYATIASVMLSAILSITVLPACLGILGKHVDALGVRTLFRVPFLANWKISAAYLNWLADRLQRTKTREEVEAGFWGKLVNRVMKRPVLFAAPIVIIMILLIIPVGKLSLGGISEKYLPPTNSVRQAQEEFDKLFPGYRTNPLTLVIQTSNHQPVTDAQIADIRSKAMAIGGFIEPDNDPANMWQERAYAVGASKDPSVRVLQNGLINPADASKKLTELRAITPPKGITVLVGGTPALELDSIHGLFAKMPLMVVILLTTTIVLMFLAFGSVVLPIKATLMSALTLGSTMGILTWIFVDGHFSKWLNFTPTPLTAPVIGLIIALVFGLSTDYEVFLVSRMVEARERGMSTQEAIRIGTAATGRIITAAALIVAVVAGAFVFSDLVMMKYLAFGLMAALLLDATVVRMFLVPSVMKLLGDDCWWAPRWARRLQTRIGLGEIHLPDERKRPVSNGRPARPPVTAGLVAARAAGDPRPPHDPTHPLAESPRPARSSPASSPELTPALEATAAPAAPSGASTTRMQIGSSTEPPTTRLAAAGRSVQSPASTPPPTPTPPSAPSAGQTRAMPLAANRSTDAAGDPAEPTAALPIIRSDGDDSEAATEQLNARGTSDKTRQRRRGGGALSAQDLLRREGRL
The target of the next test is purified MmpL3-GFP (Mycobacterium tuberculosis, UniProt P9WJV5). It is filed as binding.
Chain of purified MmpL3-GFP (P9WJV5 whole entry): as above
The target of test [23] is T1, MmpL3tb- and MmpL3tb-GFP-coated particles (Mycobacterium tuberculosis, UniProt P9WJV5).
T1 construct: His tag; made in house; host or cells: Mycobacterium smegmatis ΔmmpL3 carrying pMVGH1-mmpL3tb or pMVGH1-mmpL3tb-gfp
T1 sequence (P9WJV5 whole entry): as above
Type of test: binding. The note with it: 15 min at room temperature; various probe concentrations.

The mark [24] stands for this setting: Mycolicibacterium smegmatis, Tables 1A-1B, MmpL3 WT, read-out: MIC.

pKd: −log10 of the molar value. In brackets after ≈: the same amount, converted by molar mass. Several values for one entry are separate records, joined by “and”; a condition that tells them apart may be missing. Equal entries are not always repeated. Entries after “also recorded” stand apart in the source; their conditions may differ. Where two headings read alike, the source gives them in different places. Marks after values point to notes of the source that are not given here.

Chain of MmpL3tb (MmpL3^WT) (P9WJV5 whole entry): as above

For `N#CC(C#N)=NNc1cccc(Cl)c1` [CCCP], in the test on Mtb (against Mtb, FIG. 8 legend), the MIC was 6.25 µM (≈ 1.28 µg/mL).
Consider `O=C(O)c1cn(C2CC2)c2cc(N3CCNCC3)c(F)cc2c1=O` [CIP, ciprofloxacin], for which the MIC came to 0.31 µg/mL (≈ 0.936 µM) in test [1]; 0.31 µg/mL (≈ 0.936 µM) in test [2]; 0.31 µg/mL (≈ 0.936 µM) in test [3]; 0.31 µg/mL (≈ 0.936 µM) in [4] (Mycolicibacterium smegmatis, read-out: MIC); 0.31 µg/mL (≈ 0.936 µM) in test [5]; 0.31 µg/mL (≈ 0.936 µM) in test [6]. In addition, the MIC in test [7], in [8], in test [9] (Mycolicibacterium smegmatis), in [10], in [11] and in test [12] was 0.31 µg/mL (≈ 0.936 µM) each time. For the same compound, the MIC in [13], in test [14] and in [15] was 0.31 µg/mL (≈ 0.936 µM) throughout.
In the case of `C[C@@H]1[C@H]2C[C@@H](C[C@H]1NC(=O)c1cc3ccccc3[nH]1)C2(C)C` [North 4], the MIC in [5] was 1.28^a μg/mL; in test [6], 1.28^a μg/mL; in test [16] it was 1.28^a μg/mL; in [7], 1.28^a μg/mL; in test [17], 0.32 µg/mL (≈ 1.08 µM); in test [9] (setting [24]) it was 0.16 µg/mL (≈ 0.54 µM). Besides, the MIC in test [18] is 1.28^a μg/mL; in test [19] it was 0.32 µg/mL (≈ 1.08 µM); in test [12], 0.32 µg/mL (≈ 1.08 µM); in test [20], 0.64^b μg/mL; in test [21] it was 0.08 µg/mL (≈ 0.27 µM); in test [14] it was 0.64^b μg/mL. Also, at MmpL3tb (MmpL3^WT), the BLI binding signal result was “consistently bound to MmpL3tb with the strongest signals”.
Consider `Cc1cc(C)c2cc(C(=O)NC3CCCCCCC3)[nH]c2c1` [North 21], for which the MIC was 0.2^b μg/mL in test [5]; 0.2^b μg/mL in test [6]; 0.2^b μg/mL in test [16]; 0.2^b μg/mL in test [7]; 0.05 µg/mL (≈ 0.168 µM) in test [17]; 0.05 µg/mL (≈ 0.168 µM) in test [9] (setting [24]). For the same compound, the MIC in test [18] is 0.2^b μg/mL; in test [19], 0.05 µg/mL (≈ 0.168 µM); in test [12], 0.05 µg/mL (≈ 0.168 µM); in [20], 0.1 µg/mL (≈ 0.335 µM); in test [21] it was 0.05 µg/mL (≈ 0.168 µM); in test [14] it was 0.1 µg/mL (≈ 0.335 µM). The BLI binding signal result on MmpL3tb (MmpL3^WT) is “consistently bound to MmpL3tb with the strongest signals”.
For `CO[C@H]1/C=C/O[C@@]2(C)Oc3c(C)c(O)c4c(O)c(c(/C=N/N5CCN(C)CC5)c(O)c4c3C2=O)NC(=O)/C(C)=C\C=C\[C@H](C)[C@H](O)[C@@H](C)[C@@H](O)[C@@H](C)[C@H](OC(C)=O)[C@@H]1C` [RIF, rifampicin], in the test on Mtb (Mycobacterium tuberculosis), the MIC came out at 0.19 µM (≈ 0.156 µg/mL).
As to `CO[C@@H]1C[C@@H](C[C@H]2CC[C@H](C)[C@H]([C@@H](C)C(=O)O)O2)O[C@]2(O[C@](C)([C@H]3CC[C@@](C)([C@@H]4O[C@@H]([C@H]5O[C@@](O)(CO)[C@H](C)C[C@@H]5C)C[C@@H]4C)O3)C[C@H]2C)[C@@H]1C` [nigericin], in [22], the “effect on ΔpH of Mtb IMVs” value is recorded as “increase of fluorescence intensity indicative of ΔpH collapse”. For the same compound, the “effect on ΔpH of E. coli IMVs” value in the test on E. coli BL21(DE3) IMVs is “collapse the ΔpH of E. coli IMVs”. The MIC in the test with Mtb (Mycobacterium tuberculosis, against Mtb, FIG. 8 legend) came out at 4.31 µM (≈ 3.12 µg/mL).
Consider AU1235, for which the MIC in test [1] was 0.62^c μg/mL; in test [2], 2.5-5 ^ μg/mL; in test [3], 0.15^c μg/mL; in [4] it was 0.62^c μg/mL; in test [5], 3.13^a μg/mL and 2.5 μg/mL; in test [6], 1.56^b μg/mL and 1.25 μg/mL. Also, the MIC was 3.13^b μg/mL in test [16]; 3.13^a μg/mL and 5 μg/mL in [7]; 0.62 µg/mL in test [8]; 0.78 µg/mL in test [17]; 0.31 µg/mL in test [9] (Table 2, MmpL3 WT); 0.39 µg/mL in [9] (Tables 1A-1B, MmpL3 WT). The MIC in [10] is 0.62^c μg/mL; in [11], 0.62 µg/mL; in test [18] it was 12.5^a μg/mL; in test [19], 0.78 µg/mL; in test [12] it was 1.56^b μg/mL and 1.25 μg/mL; in [20] it was 0.78 µg/mL. Further, the MIC in [21] is 1.56^b μg/mL; in [13], 0.31^c μg/mL; in test [14], 3.13^a μg/mL and 2.5 μg/mL; in [15] it was 0.31-0.62^c μg/mL; in the test with Mtb (against Mtb, FIG. 8 legend) it was 0.48 µM. In addition, on MmpL3tb (MmpL3^WT), the BLI binding signal result is recorded as “weak binding signal”. The “Model (best-fit kinetic model)” value at purified MmpL3tb protein was “Two-state reaction”. Also, on purified MmpL3tb protein, the SPR binding signal entry is recorded as “strong SPR signals”. The compound further yielded a ka1 on purified MmpL3tb protein of 1858.1 M⁻¹ s⁻¹. Further, on purified MmpL3tb protein, the ka2 is listed as 0.019 1/RU*s. The compound also showed a kd1 on purified MmpL3tb protein of 0.39 s⁻¹. Also, on purified MmpL3tb protein, the kd2 came out at 0.0316 s⁻¹. Moreover, the pKd on purified MmpL3tb protein (read-out: KD1) is 3.88. Further, in test [22], the “effect on ΔpH of Mtb IMVs” value is on record as “increase of fluorescence intensity indicative of ΔpH collapse; also recorded: also collapsed ΔpH in this assay when used at 4-fold MIC concentration”. At purified MmpL3-GFP, the “displacement of Compound 2 from purified MmpL3tb” value is “clear concentration-dependent displacement”.
For the compound “Methyl 4-(3-((3s,5s,7s)-adamantan-1-yl)ureido)-2-((1-(3-(3-(5,5-difluoro-7,9-dimethyl-5H-5λ^4,6λ^4-dipyrrolo[1,2-c:2′,1′-f][1,3,2]diazaborinin-3-yl)propanamido)propyl)-1H-1,2,3-triazol-4-yl)methoxy)benzoate [Compound 4]”, the “probe binding to coated particles (MFI)” value in test [23] is recorded as “concentration-dependent binding”. In test [9] (Tables 1A-1B, MmpL3 WT), this compound gave an MIC of 64 µg/mL.
In test [9] (Tables 1A-1B, MmpL3 WT), “N-cyclooctyl-5-((1-(3-(3-(5,5-difluoro-7,9-dimethyl-5H-5λ^4,6λ^4-dipyrrolo[1,2-c:2′,1′-f][1,3,2]diazaborinin-3-yl)propanamido)propyl)-1H-1,2,3-triazol-4-yl)methoxy)-1H-indole-2-carboxamide [Compound 3]” yielded an MIC of 32 µg/mL.
